# Data reported in patent publication US20250326771A1, “PIPERAZINE DERIVATIVES USEFUL IN HIV THERAPY” (VIIV HEALTHCARE COMPANY, priority 2022, published 2025).
# Like-named read-outs stand apart in the source and are kept apart here.
# Legend:
# [1] = test system: Jurkat HIV-luciferase clones; assay: Jurkat latency reversal assay; assay type: cell-based; details: Homo sapiens, 48 h; Jurkat latency reversal assay potency; read-out: Jurkat pEC50 (converted)
# Procedure, shortened: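 Latency reversal was scored as provirus-driven luciferase luminescence in pooled Jurkat HIV-luc clones after 48 h compound exposure at 37° C. EC50 and maximal activation over vehicle were fitted with a four-parameter logistic model.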
# cIAP1-BIR3 = cIAP1-BIR3 (Homo sapiens (Human), UniProt Q13490); assay: BIR binding assay (FRET competition), cIAP1 BIR3; details: for cIAP1 BIR3 vs BIR2 separation window: fold separation (FS) for cIAP1
# Procedure, shortened: (§1)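 Each domain is run separately at its own level: 50 nM cIAP1-BIR3, 100 nM XIAP-BIR3, 325 nM for cIAP1-BIR2 or cIAP2-BIR2. Probe is a 200 nM fluorescent SMAC peptide, and the value is IC50 from FRET competition.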
# cIAP1-BIR2 = cIAP1-BIR2 (Homo sapiens (Human), UniProt Q13490); assay: BIR binding assay (FRET competition), cIAP1 BIR2
# Procedure, shortened: as §1
# cIAP2-BIR3 = cIAP2-BIR3 (Homo sapiens (Human), UniProt Q13489); assay: BIR binding assay (FRET competition), cIAP2 BIR3; details: for cIAP2 BIR3 vs BIR2 separation window: fold separation (FS) for cIAP2
# cIAP2-BIR2 = cIAP2-BIR2 (Homo sapiens (Human), UniProt Q13489); assay: BIR binding assay (FRET competition), cIAP2 BIR2
# Procedure, shortened: as §1
# XIAP-BIR3 = XIAP-BIR3 (Homo sapiens (Human), UniProt P98170); assay: BIR binding assay (FRET competition), XIAP BIR3; details: for XIAP BIR3 vs BIR2 separation window: fold separation (FS) for XIAP
# Procedure, shortened: as §1
# XIAP-BIR2 = XIAP-BIR2 (Homo sapiens (Human), UniProt P98170); assay: BIR binding assay (FRET competition), XIAP BIR2
# Method: The BIR domain binding assays are FRET based competition assays that utilize His-tagged versions of each of the BIR2 and BIR3 domains from cIAP1, cIAP2, and XIAP (each domain assayed separately) each at a custom optimal concentration and a probe, 200 nM SMAC/DIABLO peptide AVPIAQKSE labelled with AlexaFluor647 (part #crb 1110326h, Discovery Peptides). The assay is conducted in 50 mM HEPES, […], 1 mM CHAPS, 5% Glycerol, 1 mM DTT, in dI water with a final pH of 7.4 and final volume of 20 uL. Final protein domain concentrations are: 50 nM cIAP1-BIR3 (Part #APT-11-370 Reaction Biology), 100 nM XIAP-BIR3 (Part #APT-11-351 Reaction Biology), 200 nM XIAP-BIR2 (Part #APT-11-470 Reaction Biology), 325 nM cIAP2-BIR2 (Part #APT-11-489 Reaction Biology), 50 nM cIAP2-BIR3 (Part #APT-11-372 Reaction Biology), 325 nM cIAP1-BIR2 (Part #APT-11-487 Reaction Biology). Compounds were plated using a HP Tecan D300 printer in a final total volume of 202 nl and DMSO concentration normalized across the 15-point, 3-fold dilution series. Peptide and probe were prepared at 2× relative to the concentrations above in binding buffer, 10 uL added to the prepared compound plates, and incubated for 60 minutes. LANCE Eu-W1024 (part #AD0401 Perkin Elmer #, vendor) was prepared at 2× concentration in binding buffer for final concentration of 2 nM, 10 uL added to each well, and plates incubated for 30 minutes. Plates were read on an ENVISION multifunction plate reader with […] laser excitation to obtain the 615 nm/665 nm emission ratio as indicative of probe:protein proximity. Data was analyzed using GraphPad PRISM and curves fit using log(inhibitor) vs. response—Variable slope (four […] method to obtain IC50 and pIC50 values.
# [2] = FRET competition, read-out: XIAP BIR2 (pIC50) (converted)
# cIAP1-BIR2, sequence (Q13490 173-257): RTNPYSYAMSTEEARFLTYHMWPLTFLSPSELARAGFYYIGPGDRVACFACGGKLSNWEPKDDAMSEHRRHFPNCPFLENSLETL
# cIAP2-BIR2, sequence (Q13489 158-242): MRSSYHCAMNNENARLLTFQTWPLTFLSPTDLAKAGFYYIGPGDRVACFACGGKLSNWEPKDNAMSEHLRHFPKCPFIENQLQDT
# XIAP-BIR3, sequence (P98170 241-356): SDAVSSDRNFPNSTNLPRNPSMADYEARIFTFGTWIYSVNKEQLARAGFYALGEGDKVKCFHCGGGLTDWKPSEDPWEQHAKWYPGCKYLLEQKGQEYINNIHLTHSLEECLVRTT
# XIAP-BIR2, sequence (P98170 124-240): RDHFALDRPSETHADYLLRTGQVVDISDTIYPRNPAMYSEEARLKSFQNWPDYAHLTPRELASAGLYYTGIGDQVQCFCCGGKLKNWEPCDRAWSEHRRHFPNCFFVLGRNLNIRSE
# cIAP1-BIR3, sequence (Q13490 253-363): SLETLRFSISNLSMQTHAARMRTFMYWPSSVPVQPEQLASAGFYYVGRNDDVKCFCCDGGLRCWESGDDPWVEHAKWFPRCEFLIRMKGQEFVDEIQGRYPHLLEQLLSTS
# cIAP2-BIR3, sequence (Q13489 238-349): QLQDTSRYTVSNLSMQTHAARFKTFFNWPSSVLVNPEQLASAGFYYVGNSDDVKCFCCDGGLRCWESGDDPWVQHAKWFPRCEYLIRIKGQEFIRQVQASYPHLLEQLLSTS
SMILES,EC50 [1],IC50 (cIAP1-BIR3),cIAP1 BIR3 vs BIR2 separation window (cIAP1-BIR3),IC50 (cIAP1-BIR2),cIAP2 BIR3 (pIC50) (cIAP2-BIR3; FRET competition binding),cIAP2 BIR3 vs BIR2 separation window (cIAP2-BIR3),IC50 (cIAP2-BIR2),IC50 (XIAP-BIR3),XIAP BIR3 vs BIR2 separation window (XIAP-BIR3),XIAP BIR2 (pIC50) (XIAP-BIR2; FRET competition binding),IC50 (cIAP2-BIR3),IC50 (XIAP-BIR2; [2]),IC50 (XIAP-BIR2),"IC50 (XIAP-BIR2; FRET competition binding, read-out: XIAP BIR2 (pIC50) (converted))"
"C[C@@H]1CN(CC(=O)N2CC(C)(C)c3[nH]c(=O)c(Cc4ccc(F)cc4)cc32)[C@@H](CN2CCC[C@H](NC(=O)Cc3ccc(CC(=O)N[C@H]4CCCN(C[C@H]5CN[C@H](C)CN5CC(=O)N5CC(C)(C)c6[nH]c(=O)c(Cc7ccc(F)cc7)cc65)C4)cc3)C2)CN1 [Example 42, 2,2′-(1,4-phenylene)bis(N-((S)-1-(((2R,5R)-1-(2-(6-(4-fluorobenzyl)-3,3-dimethyl-5-oxo-2,3,4,5-tetrahydro-1H-pyrrolo[3,2-b]pyridin-1-yl)-2-oxoethyl)-5-methylpiperazin-2-yl)methyl)piperidin-3-yl)acetamide)]",316 to 3310 nM,31.6 to 501 nM,"++ (1,000>FS>100)",3160 to 10000 nM,++ (7.80>pIC50>=7.50),"+++ (10,000>FS>1,000)",3160 to 10000 nM,31.6 to 501 nM,"+++ (10,000>FS>1,000)",+ (4.29<pIC50<=5.00),,,,
"C[C@@H]1CN(CC(=O)N2CC(C)(C)c3[nH]c(=O)c(Oc4ccc(Br)cc4)cc32)[C@@H](CN2CCO[C@H](C(=O)NCc3ccc(CNC(=O)[C@@H]4CN(C[C@H]5CN[C@H](C)CN5CC(=O)N5CC(C)(C)c6[nH]c(=O)c(Oc7ccc(Br)cc7)cc65)CCO4)cc3)C2)CN1 [Compound 183, (2S,2′S)-N,N′-(1,4-phenylenebis(methylene)) bis(4-(((2R,5R)-1-(2-(6-(4-bromophenoxy)-3,3-dimethyl-5-oxo-2,3,4,5-tetrahydro-1H-pyrrolo[3,2-b]pyridin-1-yl)-2-oxoethyl)-5-methylpiperazin-2-yl)methyl)morpholine-2-carboxamide)]",63.1 to 316 nM,1.38 to 7.94 nM,"+++ (10,000>FS>1,000)",1000 to 3160 nM,,"+++ (10,000>FS>1,000)",1000 to 3160 nM,31.6 to 501 nM,"+++ (10,000>FS>1,000)",,1.38 to 7.94 nM,10000 to 51300 nM,,
"C[C@@H]1CN(CC(=O)N2CC(C)(C)c3[nH]c(=O)c(Cc4ccc(F)cc4)cc32)[C@@H](CN2CCO[C@H](C(=O)N3CCN(C(=O)[C@@H]4CN(C[C@H]5CN[C@H](C)CN5CC(=O)N5CC(C)(C)c6[nH]c(=O)c(Cc7ccc(F)cc7)cc65)CCO4)CC3)C2)CN1 [Example 118, 1,1′-(2,2′-((3R,3′R,6R,6′R)-(((2S,2'S)-(piperazine-1,4-dicarbonyl)bis(morpholine-2,4-diyl))bis(methylene))bis(3-methylpiperazine-6,1-diyl))bis(acetyl))bis(6-(4-fluorobenzyl)-3,3-dimethyl-1,2,3,4-tetrahydro-5H-pyrrolo[3,2-b]pyridin-5-one)]",12.6 to 63.1 nM,7.94 to 15.8 nM,"+++ (10,000>FS>1,000)",1000 to 3160 nM,,"+++ (10,000>FS>1,000)",1000 to 3160 nM,7.94 to 15.8 nM,"++++ (FS>10,000)",,7.94 to 15.8 nM,,10000 to 51300 nM,
"C[C@@H]1CN(CC(=O)N2CC(C)(C)c3[nH]c(=O)c(Cc4ccc(C(F)F)cc4)cc32)[C@@H](CN2CCO[C@H](C(=O)NCc3ccc(CNC(=O)[C@@H]4CN(C[C@H]5CN[C@H](C)CN5CC(=O)N5CC(C)(C)c6[nH]c(=O)c(Cc7ccc(C(F)F)cc7)cc65)CCO4)cc3)C2)CN1 [Compound 166, (2S,2′S)-N,N′-(1,4-phenylenebis(methylene)) bis(4-(((2R,5R)-1-(2-(6-(4-(difluoromethyl)benzyl)-3,3-dimethyl-5-oxo-2,3,4,5-tetrahydro-1H-pyrrolo[3,2-b]pyridin-1-yl)-2-oxoethyl)-5-methylpiperazin-2-yl)methyl)morpholine-2-carboxamide)]",316 to 3310 nM,7.94 to 15.8 nM,"++ (1,000>FS>100)",22.4 to 1000 nM,,"+++ (10,000>FS>1,000)",22.4 to 1000 nM,15.8 to 31.6 nM,"++++ (FS>10,000)",,1.38 to 7.94 nM,10000 to 51300 nM,,
"C[C@@H]1CN(CC(=O)N2CC(C)(C)c3[nH]c(=O)c(Cc4ccc(F)cc4)cc32)[C@@H](CN2CCO[C@@H](C(=O)NCc3ccc(CNC(=O)[C@H]4CN(C[C@H]5CN[C@H](C)CN5CC(=O)N5CC(C)(C)c6[nH]c(=O)c(Cc7ccc(F)cc7)cc65)CCO4)cc3)C2)CN1 [Example 111, (2R,2′R)-N,N′-(1,4-phenylenebis(methylene))bis(4-(((2R,5R)-1-(2-(6-(4-fluorobenzyl)-3,3-dimethyl-5-oxo-2,3,4,5-tetrahydro-1H-pyrrolo[3,2-b]pyridin-1-yl)-2-oxoethyl)-5-methylpiperazin-2-yl)methyl)morpholine-2-carboxamide)]",12.6 to 63.1 nM,7.94 to 15.8 nM,"+++ (10,000>FS>1,000)",3160 to 10000 nM,,"+++ (10,000>FS>1,000)",3160 to 10000 nM,31.6 to 501 nM,"+++ (10,000>FS>1,000)",,7.94 to 15.8 nM,,,10000 to 51300 nM
"C[C@@H]1CN(CC(=O)N2CC(C)(C)c3[nH]c(=O)c(Oc4ccc(Cl)cc4)cc32)[C@@H](CN2CCO[C@H](C(=O)NCc3ccc(CNC(=O)[C@@H]4CN(C[C@H]5CN[C@H](C)CN5CC(=O)N5CC(C)(C)c6[nH]c(=O)c(Oc7ccc(Cl)cc7)cc65)CCO4)cc3)C2)CN1 [Compound 182, (2S,2′S)-N,N′-(1,4-phenylenebis(methylene)) bis(4-(((2R,5R)-1-(2-(6-(4-chlorophenoxy)-3,3-dimethyl-5-oxo-2,3,4,5-tetrahydro-1H-pyrrolo[3,2-b]pyridin-1-yl)-2-oxoethyl)-5-methylpiperazin-2-yl)methyl)morpholine-2-carboxamide)]",63.1 to 316 nM,7.94 to 15.8 nM,,,,"+++ (10,000>FS>1,000)",3160 to 10000 nM,31.6 to 501 nM,"+++ (10,000>FS>1,000)",,1.38 to 7.94 nM,10000 to 51300 nM,,
"C[C@@H]1CN(CC(=O)N2CC(C)(C)c3[nH]c(=O)c(Cc4ccc(F)cc4)cc32)[C@@H](CN2CCO[C@H](COc3ccc(Oc4cccc(Oc5ccc(OC[C@@H]6CN(C[C@H]7CN[C@H](C)CN7CC(=O)N7CC(C)(C)c8[nH]c(=O)c(Cc9ccc(F)cc9)cc87)CCO6)cc5)c4)cc3)C2)CN1 [Example 60, 1,1′-(2,2′-((3R,3′R,6R,6′R)-(((2S,2'S)-((((1,3-phenylenebis(oxy))bis(4,1-phenylene))bis(oxy))bis(methylene))bis(morpholine-2,4-diyl))bis(methylene))bis(3-methylpiperazine-6,1-diyl))bis(acetyl))bis(6-(4-fluorobenzyl)-3,3-dimethyl-1,2,3,4-tetrahydro-5H-pyrrolo[3,2-b]pyridin-5-one)]",12.6 to 63.1 nM,31.6 to 501 nM,,,,"++++ (FS>10,000)",10000 to 51300 nM,31.6 to 501 nM,"++++ (FS>10,000)",,15.8 to 31.6 nM,,10000 to 51300 nM,
